Data on one molecule can be found in patent publication EP0211183A2, “Use of ubidecarenone(ubiquinone-10) as an antichromatotic agent” (Eisai Co., Ltd., priority 1985, dated 1987).

Like-named read-outs stand apart in the source and are kept apart here.

Data set [1] is described as follows: Acute toxicity, various dosage pathways, 7-day lethality, LD50 by Litchfield-Wilcoxon. In kind it is in vivo, ICR-JCL mice. The settings on record: in vivo, read-out: LD50 value (95% confidence limit). Here is the method: (§1) The acute toxicity of the present substance was investigated in various dosage pathways by the use of Wister rats and ICR-JCL mice. For the peroral or endermic dosage, the present substance was dissolved in a distilled water and the resulting solution was used. For the other dosages, the present substance was dissolved in a physiological salt solution and the resulting solution was dosed with a stomach conductor or an injector. In each dosage, a determined amount of the substance was regulated and properly dosed.
(§2) After the dosage, the expression of toxicopathy was continuously observed, and the lethality with the lapse of time for 7 days was measured and the value of LDSO was obtained therefrom. Both the tested animals as living and the tested animals as died were dissected for observation. LD50 was calculated on the basis of Litchfield-Wilcoxon figure-calculation method.

A further data set concerns Wister rats. Described as above. The format is in vivo. The settings on record: rats. Here is the method:
as §1, §2

A further data set concerns ICR-JCL mice. The data set is described as above. To be noted: mice. In kind it is in vivo. Here is the method: as §1, §2
A further data set deals with guinea pigs. Briefly: Sensitization, maximization test by Magnusson and Kligman. In kind it is in vivo. To be noted: challenge on day 21, sealed 24 hours. Here is the method:
This was tested in accordance with a maximization test by Magnusson B. and Kligman, A.M. The test is as follows:
Twenty guinea pigs were prepared for the test, ten being for the induction and the other ten being for the control in the challenge. The suprascapular part of the guinea pig was clipped and shaved in the area of 4cm x 6cm, and the following three pairs of hypodermic injections (a), (b) and (c) were imparted simultaneously to both the right and left parts as being symmetrical about the median line. • (a) Each 0.05ml of FCA to two points in both the right and left parts, totalling O.lml in all. • (b) Each 0.05ml of the test substance to two points in both the right and left parts, in the form of an aqueous solution (content of test substance: 10X). • (c) Each 0.05ml of FCA as containing the test substance emulsion to two points in both the right and left parts.
After one week from the hypodermic injection, the suprascapular part was again clipped and vaseline containing 10X of sodium laurylsulfate was applied thereover thereby to cause a slight inflammation on the applied part. By this treatment, the sensitization was intensified. Next, the test substance was applied to this part, which was thereafter airtightly sealed. […]

Where [2] appears, read: at the dosages of Table-1, 7 days.

Consider `COC1=C(OC)C(=O)C(CC=C(C)CCC=C(C)CCC=C(C)CCC=C(C)CCC=C(C)CCC=C(C)CCC=C(C)CCC=C(C)CCC=C(C)CCC=C(C)C)=C(C)C1=O` [ubiquinone-10], for which the 50% lethal dose (LD50) (commonly the dose expected to kill half of the subjects tested) at 168 h in data set [1] (mouse, im, mice (male, female), Intramuscular) worked out at 500 mg/kg; in data set [1] (mouse, ip, mice (male, female), Intra-abdominal), 1500 mg/kg; in data set [1] (mouse, po, mice (male, female), Peroral), 4000 mg/kg; in data set [1] (mouse, sc, mice (male, female), Hypodermic), 500 mg/kg; in data set [1] (mouse, mice (male, female), Endermic) it was 4000 mg/kg; in data set [1] (mouse, mice (male, female), Intravenous), 250 mg/kg. Also, the LD50 at 168 h in data set [1] (rat, im, rats (male, female), Intramuscular) was found to be 500 mg/kg; in data set [1] (rat, ip, rats (male, female), Intra-abdominal) it was 1500 mg/kg; in data set [1] (rat, po, rats (male, female), Peroral), 4000 mg/kg; in data set [1] (rat, sc, rats (male, female), Hypodermic), 500 mg/kg; in data set [1] (rat, rats (male, female), Endermic), 4000 mg/kg; in data set [1] (rat, rats (male, female), Intravenous), 250 mg/kg. Also, the “general condition, weight, amount of feed intake, observation in dissection” value with Wister rats (at the dosages of Table-1) and in the data set with ICR-JCL mice (at the dosages of Table-1) was “no abnormal change was found” throughout. The lethality result in the data set with Wister rats (setting [2]) and in the data set with ICR-JCL mice (setting [2]) was “no animals as tested died” in each case. Besides, the sensitization reaction result in the data set on guinea pigs was “No sensitization reaction”.
